The IC50 is the concentration that gives 50% inhibition. For orientation: Ki means a measure of affinity in units of concentration, obtained from inhibition or displacement. A higher Ki goes with lower affinity. A word on the Papp: it is a coefficient for how fast a substance crosses the barrier. Higher therefore signals fast passage. The term half-life denotes the time needed for the level to fall by half in the phase considered. A low value points to fast loss. In general, microsomal CLint refers to the rate of metabolic loss divided by the concentration. Low values mean greater metabolic stability, high ones faster metabolism. A word on the solubility: it is how much of the substance goes into solution per volume. Low readings indicate little dissolved substance, high ones much dissolved substance.

Data set [1] addresses Voltage-gated inwardly rectifying potassium channel KCNH2 (Homo sapiens, UniProt Q12809). Description: Inhibition of hERG expressed in CHO cells measured for 30 mins by electrophysiological automated patch clamp assay. In kind it is toxicity, cell-based. Background: Block of hERG is tested as a sign of cardiac risk.
Data set [2] concerns the target 5-hydroxytryptamine receptor 6 (Homo sapiens, UniProt P50406).
Description: Displacement of [3H]-LSD from human 5-HT6 receptor extracted from CHO-K1 cell membrane assessed as inhibition constant incubated for 60 mins by microbeta2 scintillation counter analysis
A short description of data set [3]: in vitro. Particulars: PAMPA. (The PAMPA barrier holds no transporters, so it reflects passive diffusion.)
Description: Permeability of compound by PAMPA based LC-MS analysis
Data set [4] is described as follows: in vitro. Particulars: rat, liver microsomes. Background: Microsomes from liver hold many membrane-bound enzymes, among them those of drug oxidation.
The nature of data set [5]: in vitro. Particulars: rat, liver microsomes. This is another data set of the same source.
Data set [6] can be described thus: in vitro. The settings on record: human, HepG2 cells.
Description: Hepatotoxicity in human HepG2 cells incubated for 24 hrs by PrestoBlue reagent based assay
Data set [7] can be described thus: physchem. The settings on record: PBS, pH 7.4.
Data set [8] in a line: in vitro. Particulars: mouse, HT-22 cells.
Description: Neurotoxicity in mouse HT-22 cells incubated for 24 hrs by PrestoBlue reagent based assay

Values after ≈ are worked out from the molar mass of the structure shown.

Sequence of 5-hydroxytryptamine receptor 6 (P50406 whole entry, the tested form may be a part): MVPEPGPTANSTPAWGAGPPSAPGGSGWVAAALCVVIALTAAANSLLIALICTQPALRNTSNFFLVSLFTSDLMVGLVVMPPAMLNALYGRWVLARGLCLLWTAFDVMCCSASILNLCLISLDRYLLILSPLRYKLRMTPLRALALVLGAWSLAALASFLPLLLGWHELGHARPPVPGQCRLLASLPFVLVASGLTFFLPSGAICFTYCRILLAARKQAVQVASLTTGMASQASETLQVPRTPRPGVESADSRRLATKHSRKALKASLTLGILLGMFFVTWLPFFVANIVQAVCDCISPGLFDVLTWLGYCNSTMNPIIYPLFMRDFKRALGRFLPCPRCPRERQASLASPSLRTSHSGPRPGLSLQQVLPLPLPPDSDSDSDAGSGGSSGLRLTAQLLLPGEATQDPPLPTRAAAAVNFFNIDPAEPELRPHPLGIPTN
Sequence of Voltage-gated inwardly rectifying potassium channel KCNH2 (Q12809 whole entry): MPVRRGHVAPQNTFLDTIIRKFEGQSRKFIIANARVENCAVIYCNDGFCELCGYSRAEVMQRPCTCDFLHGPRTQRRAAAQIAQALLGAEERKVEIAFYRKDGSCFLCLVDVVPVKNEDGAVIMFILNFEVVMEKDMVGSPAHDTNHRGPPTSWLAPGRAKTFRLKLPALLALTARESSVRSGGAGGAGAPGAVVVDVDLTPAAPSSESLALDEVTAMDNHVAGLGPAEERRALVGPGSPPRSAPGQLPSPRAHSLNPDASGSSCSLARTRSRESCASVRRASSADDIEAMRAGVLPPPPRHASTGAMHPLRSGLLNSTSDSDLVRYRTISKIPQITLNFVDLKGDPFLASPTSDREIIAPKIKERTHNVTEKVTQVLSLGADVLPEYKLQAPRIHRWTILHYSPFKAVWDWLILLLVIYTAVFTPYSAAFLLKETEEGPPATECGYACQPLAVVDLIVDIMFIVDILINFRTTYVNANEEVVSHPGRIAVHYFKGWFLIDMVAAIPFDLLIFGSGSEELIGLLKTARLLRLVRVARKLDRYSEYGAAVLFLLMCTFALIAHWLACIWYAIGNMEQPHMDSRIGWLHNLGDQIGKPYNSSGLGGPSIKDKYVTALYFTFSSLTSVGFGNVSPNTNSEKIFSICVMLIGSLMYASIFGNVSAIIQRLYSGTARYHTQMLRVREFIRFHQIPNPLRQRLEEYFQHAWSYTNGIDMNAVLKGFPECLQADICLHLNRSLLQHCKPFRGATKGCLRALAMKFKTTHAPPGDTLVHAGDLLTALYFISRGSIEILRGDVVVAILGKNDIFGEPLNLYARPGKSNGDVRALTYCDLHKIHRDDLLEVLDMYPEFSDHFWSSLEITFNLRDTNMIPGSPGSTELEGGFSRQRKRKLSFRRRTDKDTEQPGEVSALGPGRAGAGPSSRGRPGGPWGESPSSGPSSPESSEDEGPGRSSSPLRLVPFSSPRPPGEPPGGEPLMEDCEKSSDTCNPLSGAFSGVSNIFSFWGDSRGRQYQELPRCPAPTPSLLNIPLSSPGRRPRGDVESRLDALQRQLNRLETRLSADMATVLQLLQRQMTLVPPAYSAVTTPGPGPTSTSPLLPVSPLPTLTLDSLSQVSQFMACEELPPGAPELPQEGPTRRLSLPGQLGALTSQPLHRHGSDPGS

In data set [1], `N#Cc1ccc2[nH]cc(CCN3CCN(c4cccc5c4[nH]c(=O)n5Cc4ccccc4)CC3)c2c1` yielded an IC50 of 1.7 µM.
`N#Cc1ccc2[nH]cc(CCCCN3CCN(c4cccc5c4ccn5S(=O)(=O)c4ccccc4)CC3)c2c1` came in with an IC50 in data set [1] of 1.6 µM.
On the same count and under the same terms, the figure for `N#Cc1ccc2[nH]cc(CCCCN3CCN(c4cccc5c4[nH]c(=O)n5Cc4ccccc4)CC3)c2c1` is 1.1 µM.
Still for that read-out and setting: the figure for `O=S(=O)(c1ccccc1)c1c[nH]c2c(C3CCN(CCCc4c[nH]c5ccc(Cl)cc45)CC3)cccc12` is 9.5 µM; for `Cc1c(OCc2ccccc2)cccc1N1CCN(CCCc2c[nH]c3ccc(C#N)cc23)CC1` it is 1.1 µM.
Same read-out and setting: for `O=S(=O)(c1ccccc1)c1c[nH]c2c(C3CCN(CCc4c[nH]c5ccc(Cl)cc45)CC3)cccc12` the value was 7 µM.
As for `O=c1[nH]c2c(N3CCN(CCc4c[nH]c5ccc(F)cc45)CC3)cccc2n1Cc1ccccc1`, the IC50 in data set [1] is 3.9 µM. Further, affinity in data set [2] was put at a Ki of 0.116 µM.
In the case of `O=c1[nH]c2c(N3CCN(CCCc4c[nH]c5ccc(Cl)cc45)CC3)cccc2n1Cc1ccccc1`, the IC50 in data set [1] was found to be 2.5 µM.
The same measure, in the same setting: the figure for `N#Cc1ccc2[nH]cc(CCN3CCN(c4cccc5c4ccn5S(=O)(=O)c4ccccc4)CC3)c2c1` is 8.9 µM.
Compound `Cc1c(OCc2ccccc2)cccc1N1CCN(CCc2c[nH]c3ccc(Cl)cc23)CC1` gave an IC50 in data set [1] of 6.6 µM. This compound showed a Ki in data set [2] of 0.142 µM.
As to `Cc1c(OCc2ccccc2)cccc1N1CCN(CCCCc2c[nH]c3ccc(C#N)cc23)CC1`, inhibition in data set [1] was half-maximal at 4.9 µM (IC50).
Still for that read-out and setting: the figure for `N#Cc1ccc2[nH]cc(CCCN3CCN(c4cccc5c4ccn5S(=O)(=O)c4ccccc4)CC3)c2c1` is 1.7 µM; for `N#Cc1ccc2[nH]cc(CCCN3CCN(c4cccc5c4[nH]c(=O)n5Cc4ccccc4)CC3)c2c1` it is 1.2 µM.
`O=c1[nH]c2c(N3CCN(CCc4c[nH]c5ccc(Cl)cc45)CC3)cccc2n1Cc1ccccc1`: the Papp in data set [3] was found to be 27.5 nm/s. For the same compound, in data set [4], the half-life is > 1 h. For the same compound, the microsomal CLint in data set [5] is < 116 µL/min/mg. The values for the IC50 at 24 h in data set [6] and in data set [8] were 23 µM and 47 µM, respectively. The compound further yielded a solubility at 24 h in data set [7] of 23.4 µM (≈ 11.4 µg/mL). Also, it took 4 µM to reach half-maximal inhibition in data set [1] (IC50). In data set [2], the affinity corresponds to a Ki of 0.008 µM.
In turn, `Cc1c(OCc2ccccc2)cccc1N1CCN(CCc2c[nH]c3ccc(F)cc23)CC1` had an IC50 in data set [1] of 2.8 µM.
Same read-out and setting: for `Cc1c(OCc2ccccc2)cccc1N1CCN(CCCc2c[nH]c3ccc(Cl)cc23)CC1` the value was 13.6 µM; for `N#Cc1ccc2[nH]cc(CCCN3CCC(c4cccc5c(S(=O)(=O)c6ccccc6)c[nH]c45)CC3)c2c1`, 28.1 µM; for `N#Cc1ccc2[nH]cc(CCN3CCC(c4cccc5c(S(=O)(=O)c6ccccc6)c[nH]c45)CC3)c2c1`, 1.1 µM.
Still for that read-out and setting: for `Cc1c(OCc2ccccc2)cccc1N1CCN(CCCc2c[nH]c3ccc(F)cc23)CC1` the value was 3.3 µM.
Consider `O=S(=O)(c1ccccc1)n1ccc2c(N3CCN(CCc4c[nH]c5ccc(Cl)cc45)CC3)cccc21`, for which half-maximal inhibition in data set [1] (IC50) was put at 21.3 µM. Moreover, in data set [2], affinity was put at a Ki of 0.019 µM.
On to `O=S(=O)(c1ccccc1)c1c[nH]c2c(C3CCN(CCCc4c[nH]c5ccc(F)cc45)CC3)cccc12`, for which half-maximal inhibition in data set [1] (IC50) was put at 5 µM.
Same read-out and setting: for `Cc1c(OCc2ccccc2)cccc1N1CCN(CCc2c[nH]c3ccc(C#N)cc23)CC1` the value was 3.6 µM; for `O=S(=O)(c1ccccc1)n1ccc2c(N3CCN(CCCc4c[nH]c5ccc(F)cc45)CC3)cccc21`, 2.9 µM; for `O=c1[nH]c2c(N3CCN(CCCc4c[nH]c5ccc(F)cc45)CC3)cccc2n1Cc1ccccc1`, 2.5 µM.
Take `N#Cc1ccc2[nH]cc(CCCCN3CCC(c4cccc5c(S(=O)(=O)c6ccccc6)c[nH]c45)CC3)c2c1`: in data set [1], the IC50 was found to be 4.6 µM.
Still for that read-out and setting: the figure for `O=S(=O)(c1ccccc1)n1ccc2c(N3CCN(CCCc4c[nH]c5ccc(Cl)cc45)CC3)cccc21` is 0.7 µM.
`O=S(=O)(c1ccccc1)c1c[nH]c2c(C3CCN(CCc4c[nH]c5ccc(F)cc45)CC3)cccc12` registered a concentration for half-maximal inhibition (IC50) in data set [1] of 29.3 µM. In addition, the Ki in data set [2] was 0.025 µM.
In turn, `O=S(=O)(c1ccccc1)n1ccc2c(N3CCN(CCc4c[nH]c5ccc(F)cc45)CC3)cccc21` displayed an IC50 in data set [1] of 1.3 µM. This lies in the single-digit micromolar range.

Values taken from ChEMBL document CHEMBL5579837, “Dual 5-HT6/SERT ligands for mitigating neuropsychiatric symptoms of dementia exerting neuroprotection against amyloid-β toxicity, memory preservation, and antidepressant-like properties” (Eur J Med Chem, 2024).
